Results from ChEMBL document CHEMBL1132132, “Synthesis of heparin partial structures and their binding activities to platelets” (1999).

Legend:
Assay type in all cases: functional
Homo sapiens [1] = species on record: Homo sapiens; test: Platelets binding activity relative to heparin was evaluated by competitive binding assay using [3H]-labeled heparin at concentration ~1.2 uM
Homo sapiens [2] = species on record: Homo sapiens; test: Platelets binding activity relative to heparin was evaluated by competitive binding assay using [3H]-labeled heparin at concentration ~400 uM
Homo sapiens [3] = species on record: Homo sapiens; test: Platelets binding activity relative to heparin was evaluated by competitive binding assay using [3H]-labeled heparin at concentration ~1000 uM
Homo sapiens [4] = species on record: Homo sapiens; test: Platelets binding activity relative to heparin was evaluated by competitive binding assay using [3H]-labeled heparin at concentration ~80 uM
Homo sapiens [5] = species on record: Homo sapiens; test: Platelets binding activity relative to heparin was evaluated by competitive binding assay using [3H]-labeled heparin at concentration 0.001 uM
Homo sapiens [6] = species on record: Homo sapiens; test: Platelets binding activity relative to heparin was evaluated by competitive binding assay using [3H]-labeled heparin at concentration ~1.9 uM
Homo sapiens [7] = species on record: Homo sapiens; test: Platelets binding activity relative to heparin was evaluated by competitive binding assay using [3H]-labeled heparin at concentration ~60 uM
Homo sapiens [8] = species on record: Homo sapiens; test: Platelets binding activity relative to heparin was evaluated by competitive binding assay using [3H]-labeled heparin at concentration ~50 uM

Row | Compound | Binding (Homo sapiens [1]) [%] | Binding (Homo sapiens [2]) [%] | Binding (Homo sapiens [3]) [%] | Binding (Homo sapiens [4]) [%] | Binding (Homo sapiens [5]) [%] | Binding (Homo sapiens [6]) [%] | Binding (Homo sapiens [7]) [%] | Binding (Homo sapiens [8]) [%]
1 | CO[C@H]1O[C@H](COS(=O)(=O)[O-])[C@@H](O[C@H]2O[C@H](C(=O)[O-])[C@@H](OC)[C@H](O)[C@H]2OS(=O)(=O)[O-])[C@H](O)[C@H]1NS(=O)(=O)[O-].[Na+].[Na+].[Na+].[Na+] | 96 | 96 | 97 | 97 | 115 | – | – | –
2 | CO[C@H]1O[C@H](CO)[C@@H](O[C@H]2O[C@H](C(=O)[O-])[C@@H](OC3O[C@H](COS(=O)(=O)[O-])[C@@H](OC)[C@H](O)[C@H]3NS(=O)(=O)[O-])[C@H](O)[C@H]2OS(=O)(=O)[O-])[C@H](O)[C@H]1NS(=O)(=O)[O-].[Na+].[Na+].[Na+].[Na+].[Na+] (stereo not given in full) | 100 | 110 | 110 | – | – | 100 | 105 | –
3 | CO[C@H]1O[C@H](COS(=O)(=O)[O-])[C@@H](O[C@H]2O[C@H](C(=O)[O-])[C@@H](O[C@H]3O[C@H](COS(=O)(=O)[O-])[C@@H](OC)[C@H](O)[C@H]3NS(=O)(=O)[O-])[C@H](O)[C@H]2OS(=O)(=O)[O-])[C@H](O)[C@H]1NS(=O)(=O)[O-].[Na+].[Na+].[Na+].[Na+].[Na+].[Na+] | 105 | 100 | 97 | – | – | 105 | – | 105
4 | CO[C@@H]1O[C@H](C(=O)[O-])[C@@H](O[C@H]2O[C@H](COS(=O)(=O)[O-])[C@@H](OC)[C@H](OS(=O)(=O)[O-])[C@H]2NS(=O)(=O)[O-])[C@H](O)[C@H]1OS(=O)(=O)[O-].[Na+].[Na+].[Na+].[Na+].[Na+] | 100 | 115 | 75 | 100 | – | 98 | – | –
